Tests used:
[1] = tested on: CYP3A4; settings: cited from earlier work
[2] = tested on: CYP3A; settings: cited from earlier work
[3] = tested on: CYP3A; settings: by inhibiting CYP3A activity; cited from earlier work
[4] = Midazolam pharmacokinetics in rats after 7-day MFE or water pre-treatment; settings: rat
[5] = Sprague Dawley, plasma, po, 15 mg/kg

## O=C(O[C@@H]1Cc2c(O)cc(O)cc2O[C@@H]1c1cc(O)c(O)c(O)c1)c1cc(O)c(O)c(O)c1 [EGCG, epigallocatechin gallate]
[1]
  Inhibition of CYP3A4 activity: irreversibly inhibits
[2]
  Inhibition of CYP3A activity in human liver microsomes: moderately inhibits
[3]
  Effect on pharmacokinetics of nicardipine in rats: alters the pharmacokinetics of nicardipine

## Cc1ncc2n1-c1ccc(Cl)cc1C(c1ccccc1F)=NC2 [Midazolam]
[4]; Sprague Dawley, plasma, po
  Tmax: 15 min
[4]; [5]
  Cmax: 708 ± 91 ng/mL
  Tmax: 30 min
[4]; midazolam 15 mg/kg oral, control (water pre-treatment 7 days)
  Cmax: 919 ± 70 ng/mL
[4]; midazolam 15 mg/kg oral, no significant difference
  AUC0−∞ higher in MFE pre-treatment group compared to control group: 12%
